Data reported in PMC8228141, “Antiprotozoal Nor-Triterpene Alkaloids from Buxus sempervirens L” (Antibiotics, 2021).
Where “and” joins values, the source holds several entries; their conditions need not be identical. Equal values may be shown once. Read-outs that look alike come from different tables or passages of the source.

Key:
[1] = system: L6 rat skeletal myoblasts; assay: Cytotoxicity against mammalian control cells; format: cell-based
Method: (§1) After isolation, all alkaloids were tested in vitro for antiplasmodial and antitrypanosomal activity against Plasmodium falciparum (Pf) and Trypanosoma brucei rhodesiense (Tbr). Furthermore, to assess their selectivity against the parasites, cytotoxicity against L6 rat skeletal myoblasts, as mammalian control cells, was tested (Table 4).
(§2) In vitro assays for the bioactivity of the isolated Buxus-alkaloids against Tbr (bloodstream trypomastigotes, STIB 900 strain), Trypanosoma cruzi (Tc) (amastigotes, Tulahuen C4 strain), Leishmania donovani (Ldo) (amastigotes, MHOM-ET-67/L82 strain) and Pf (intraerythrocytic forms, NF54 strain), and cytotoxicity tests against mammalian cells (L6-cell line from rat-skeletal myoblasts), were performed at the Swiss Tropical and Public Health Institute (Swiss TPH, Basel, Switzerland) according to established standard protocols.

[2] = system: Plasmodium falciparum (Pf) (intraerythrocytic forms, NF54 strain); assay: In vitro antiplasmodial activity; format: cell-based
Method: as §1, §2

[3] = system: Plasmodium falciparum (Pf) (intraerythrocytic forms, NF54 strain); parameters: method as in PMID 24838073; conditions: previous study; cited from earlier work
[4] = system: Trypanosoma brucei rhodesiense (Tbr) (bloodstream trypomastigotes, STIB 900 strain); assay: In vitro antitrypanosomal activity; format: cell-based; conditions: for Tbr IC50 / IC50: STIB 900 strain
Method: as §1
as §2, with “protocols. […] Such a pattern of activity was also observed in other studies.” for “protocols.”

[5] = system: Trypanosoma brucei rhodesiense (Tbr) (bloodstream trypomastigotes, STIB 900 strain); parameters: method as in PMID 29738470; conditions: cited from earlier work
[6] = Cytotoxicity against mammalian control cells; format: cell-based, rat; conditions: rat
Method: as §1, §2

[7] = NF54 strain, mean of n = 2 (fluctuation range) or * n = 3 (SD)
[8] = NF54 strain, read-out: Pf IC50 (in parentheses) (converted)
[9] = mean of n = 2 (fluctuation range) or * n = 3 (SD)
[10] = read-out: Tbr IC50 (in parentheses) (converted)

O-tigloylcyclovirobuxeine-B [Compound 1]
Cytotox. IC50 ([1]; L6 cell line, mean of n = 2 (fluctuation range) or * n = 3 (SD)): 9.4 ± 3.8 mg/L
IC50 ([1]; L6 cell line, read-out: Cytotox. IC50 (in parentheses) (converted)): 19 µM
Pf IC50 [2, 7]: 0.52 ± 0.14 mg/L
IC50 [2, 8]: 1.05 µM
in vitro activity against Pf [3]: strong and selective in vitro activity
Tbr IC50 [4, 9]: 1.6 ± 0.55 mg/L
IC50 [4, 10]: 3.2 µM

CN[C@@H](C)[C@H]1[C@H](O)C[C@@]2(C)[C@@H]3C=C[C@H]4C(C)(C)[C@@H](N(C)C)CC[C@@]45C[C@@]35CC[C@]12C [Compound 2, Cyclovirobuxeine-B]
Cytotox. IC50 [1]: 14.7 ± 3.1 mg/L
IC50 [1]: 35.5 µM
Pf IC50 [2, 7]: 1.07 ± 0.11 mg/L
IC50 [2, 8]: 2.6 µM
in vitro activity against Tbr [5]: highly active and selective
Tbr IC50 [4, 9]: 0.6 ± 0.03 mg/L
IC50 [4, 10]: 1.5 µM

C[C@@H]([C@H]1[C@H](O)C[C@@]2(C)[C@@H]3CC[C@@H]4[C@@]5(CCC(=O)[C@@]4(C)CO)C[C@@]35CC[C@]12C)N(C)C [Compound 11, 29-hydroxy-cyclomikuranine-L]
IC50 [6]: 44 µg/mL and 105 µM
IC50 ([2]; Plasmodium falciparum, NF54, NF54 strain, mean of n = 2 (fluctuation range) or * n = 3 (SD), read-out: Pf IC50): 0.9 ± 0.13 mg/L
IC50 ([2]; Plasmodium falciparum, NF54, NF54 strain, read-out: Pf IC50 (in parentheses) (converted)): 2.2 µM
SI Pf (selectivity index) ([2]; cytotoxicity L6 vs Pf): 49
IC50 ([4]; Trypanosoma brucei, mean of n = 2 (fluctuation range) or * n = 3 (SD), read-out: Tbr IC50): 2.9 ± 1 mg/L
IC50 ([4]; Trypanosoma brucei, read-out: Tbr IC50 (in parentheses) (converted)): 7 µM
SI Tbr (selectivity index) ([4]; cytotoxicity L6 vs Tbr): 15
